Assay results as given in article PMC7532674, “Synthesis and preliminary studies of ^11C-labeled tetrahydro-1,7-naphthyridine-2-carboxamides for PET imaging of metabotropic glutamate receptor 2” (Theranostics, 2020).
Where two headings read alike, the source gives them in different places. Blank lines part the entries; values can stand above or below the molecule they belong to.

Experiments:
human mGlu2 = target: T1, human mGlu2 (Homo sapiens, UniProt Q14416); assay: Human mGlu2 GIRK thallium flux assay; type: cell-based; details: HEK293 cells, EC80 glutamate, triplicate assays (14g duplicate)
T1 construct: expressed in transfected cells
T1 sequence (Q14416 19-872): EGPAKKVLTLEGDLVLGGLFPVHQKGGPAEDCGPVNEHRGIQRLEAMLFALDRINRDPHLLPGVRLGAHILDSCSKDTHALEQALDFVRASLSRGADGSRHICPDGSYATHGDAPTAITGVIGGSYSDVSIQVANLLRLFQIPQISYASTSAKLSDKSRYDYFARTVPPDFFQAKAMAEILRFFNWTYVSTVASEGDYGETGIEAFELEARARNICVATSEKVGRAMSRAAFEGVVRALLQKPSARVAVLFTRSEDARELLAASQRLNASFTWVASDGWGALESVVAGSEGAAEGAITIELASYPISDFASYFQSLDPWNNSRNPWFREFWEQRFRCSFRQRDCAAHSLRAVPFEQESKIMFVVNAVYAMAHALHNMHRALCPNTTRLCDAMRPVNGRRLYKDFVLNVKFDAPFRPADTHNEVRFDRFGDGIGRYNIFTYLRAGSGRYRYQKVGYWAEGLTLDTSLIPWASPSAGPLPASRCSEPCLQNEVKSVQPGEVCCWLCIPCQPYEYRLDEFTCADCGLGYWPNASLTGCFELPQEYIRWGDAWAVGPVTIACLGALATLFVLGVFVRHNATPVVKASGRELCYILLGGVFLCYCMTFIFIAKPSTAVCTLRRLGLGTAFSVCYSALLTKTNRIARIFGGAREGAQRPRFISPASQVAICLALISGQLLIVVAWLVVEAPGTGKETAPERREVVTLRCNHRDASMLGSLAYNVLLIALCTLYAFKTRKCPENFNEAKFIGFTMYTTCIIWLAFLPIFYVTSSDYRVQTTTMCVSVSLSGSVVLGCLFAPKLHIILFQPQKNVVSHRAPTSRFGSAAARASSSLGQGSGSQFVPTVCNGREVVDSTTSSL
Experimental: (§1) Cell Line Generation and Thallium Flux Assays. The general procedure for the preparation of human mGlu2 and mGlu3 was described previously, [56] with minor modifications in this work. The cloning sites were NheI/NotI for both receptors. HEK GIRK cells, generously provided by Lily Jan (University of California San Francisco, San Francisco, CA), were transfected with 24 μg of DNA using Fugene6 (Promega), stable transfectants were selected with 1 μg/mL puromycin dihydrochloride (Sigma-Aldrich, St. Louis, MO), and polyclonal human mGlu2 GIRK and mGlu3 GIRK cell lines were established. Cells were maintained following selection in 45% DMEM, 45% Ham's F12, 10% FBS, 100 units/mL penicillin/streptomycin, 20 mM HEPES, pH 7.3, 1 mM sodium pyruvate, 2 mM glutamine, 700 μg/mL G418 (Mediatech, Inc., Herndon, VA), and […] puromycin (growth media) at 37 °C in the presence of 5% CO2. All cell culture reagents were purchased from Invitrogen Corp. (Carlsbad, CA) unless otherwise noted.
(§2) Human mGlu2 and mGlu3 Thallium Flux in Vitro Assays. Potencies of these NAMs at both mGlu2 and mGlu3 were investigated by thallium flux through GIRK channels, which was disclosed in detail as well as described in our previous work. In particular, cells were plated into 384-well, black-walled, clear-bottomed poly(D-lysine_-coated plates at a density of 15 000 cells per well in 20 μL of DMEM containing 10% dialyzed FBS, 20 mM HEPES, and 100 units/mL penicillin/streptomycin (assay media). Plated cells were incubated overnight at 37 °C in the presence of 5% CO2. The next day, the medium was exchanged from the cells to assay buffer [Hanks' balanced salt solution (Invitrogen) containing 20 mM HEPES, pH 7.3] using an ELX405 microplate washer (BioTek), leaving 20 μL per well, followed by the addition of 20 μL per well of FluoZin2-AM (330 nM final concentration) indicator dye (Invitrogen; prepared as a stock in DMSO and mixed in a 1:1 ratio with Pluronic acid F-127) in assay buffer. Cells were incubated for 1 h at room temperature, and the dye was exchanged to assay buffer using an ELX405, leaving 20 μL per well. For concentration-response curve experiments, compounds were serially diluted 1:3 into 10 point concentration-response curves and were transferred to daughter plates using an Echo acoustic plate reformatter (Labcyte, Sunnyvale, CA). Test compounds were diluted to 2 times their final desired concentration in assay buffer (0.3% DMSO final concentration). Agonists were diluted in thallium buffer [125 mM sodium bicarbonate (added fresh the morning of the experiment), 1 mM magnesium sulfate, 1.8 mM calcium sulfate, 5 mM glucose, 12 mM thallium sulfate, and 10 mM HEPES, pH 7.3] at 5 times the final concentration to be assayed. Cell plates and compound plates were loaded onto a kinetic imaging plate reader (FDSS 6000 or 7000; Hamamatsu Corporation, Bridgewater, NJ). Appropriate baseline readings were taken (10 images at 1 Hz; excitation, 470 ± 20 nm; emission, 540 ± 30 nm), and test compounds were added in a 20 μL volume and incubated for approximately 1 h at room temperature before the addition of 10 μL of thallium buffer with or without an EC80 concentration of the agonist glutamate for affinity evaluation experiments or with a full concentration-response of glutamate for Schild analysis experiments. After the addition of agonist, data were collected for approximately an additional 2.5 min. Data were analyzed using Excel (Microsoft Corp, Redmond, WA). The slope of the fluorescence increase beginning 5 s after thallium/agonist addition and ending 15 s after thallium/agonist addition was calculated, corrected to vehicle and maximal agonist control slope values, and plotted using either XLfit (ID Business Solutions Ltd.) or Prism software (GraphPad Software, San Diego, CA) to generate concentration-response curves. Potencies were calculated from fits using a four-point parameter logistic equation.

human mGlu3 = target: T2, human mGlu3 (Homo sapiens, UniProt Q14832); assay: Human mGlu3 GIRK thallium flux assay; type: cell-based; details: HEK293 cells, triplicate assays (14g duplicate)
T2 construct: expressed in transfected cells
T2 sequence (Q14832 23-879): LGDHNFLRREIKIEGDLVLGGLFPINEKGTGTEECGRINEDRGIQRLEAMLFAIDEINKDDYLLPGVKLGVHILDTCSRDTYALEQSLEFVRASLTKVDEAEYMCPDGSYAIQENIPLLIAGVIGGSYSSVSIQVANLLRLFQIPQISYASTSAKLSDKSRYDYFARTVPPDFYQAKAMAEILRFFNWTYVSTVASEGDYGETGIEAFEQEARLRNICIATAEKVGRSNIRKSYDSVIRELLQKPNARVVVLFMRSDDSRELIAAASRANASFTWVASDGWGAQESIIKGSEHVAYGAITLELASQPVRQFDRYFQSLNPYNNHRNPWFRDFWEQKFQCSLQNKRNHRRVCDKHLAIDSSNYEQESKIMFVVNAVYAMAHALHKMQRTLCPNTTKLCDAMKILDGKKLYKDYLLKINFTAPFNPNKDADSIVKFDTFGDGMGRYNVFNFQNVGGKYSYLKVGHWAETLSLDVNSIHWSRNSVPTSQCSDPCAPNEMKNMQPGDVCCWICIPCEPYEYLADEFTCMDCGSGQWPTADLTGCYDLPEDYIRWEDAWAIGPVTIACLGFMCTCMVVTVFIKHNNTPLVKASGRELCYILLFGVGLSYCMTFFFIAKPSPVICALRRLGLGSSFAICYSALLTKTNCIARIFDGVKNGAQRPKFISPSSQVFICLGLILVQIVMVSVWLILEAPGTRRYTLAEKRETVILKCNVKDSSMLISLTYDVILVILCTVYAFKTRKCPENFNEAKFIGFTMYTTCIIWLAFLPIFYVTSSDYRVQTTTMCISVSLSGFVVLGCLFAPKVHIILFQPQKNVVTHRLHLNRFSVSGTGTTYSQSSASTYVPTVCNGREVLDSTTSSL
Experimental: as §1, §2

major CNS targets = assay: CNS panel binding selectivity assays (NIMH PDSP)
hERG = target: T3, hERG (Homo sapiens, UniProt Q12809); assay: hERG safety assay; type: binding
T3 construct: NIMH PDSP
T3 sequence (Q12809 whole entry): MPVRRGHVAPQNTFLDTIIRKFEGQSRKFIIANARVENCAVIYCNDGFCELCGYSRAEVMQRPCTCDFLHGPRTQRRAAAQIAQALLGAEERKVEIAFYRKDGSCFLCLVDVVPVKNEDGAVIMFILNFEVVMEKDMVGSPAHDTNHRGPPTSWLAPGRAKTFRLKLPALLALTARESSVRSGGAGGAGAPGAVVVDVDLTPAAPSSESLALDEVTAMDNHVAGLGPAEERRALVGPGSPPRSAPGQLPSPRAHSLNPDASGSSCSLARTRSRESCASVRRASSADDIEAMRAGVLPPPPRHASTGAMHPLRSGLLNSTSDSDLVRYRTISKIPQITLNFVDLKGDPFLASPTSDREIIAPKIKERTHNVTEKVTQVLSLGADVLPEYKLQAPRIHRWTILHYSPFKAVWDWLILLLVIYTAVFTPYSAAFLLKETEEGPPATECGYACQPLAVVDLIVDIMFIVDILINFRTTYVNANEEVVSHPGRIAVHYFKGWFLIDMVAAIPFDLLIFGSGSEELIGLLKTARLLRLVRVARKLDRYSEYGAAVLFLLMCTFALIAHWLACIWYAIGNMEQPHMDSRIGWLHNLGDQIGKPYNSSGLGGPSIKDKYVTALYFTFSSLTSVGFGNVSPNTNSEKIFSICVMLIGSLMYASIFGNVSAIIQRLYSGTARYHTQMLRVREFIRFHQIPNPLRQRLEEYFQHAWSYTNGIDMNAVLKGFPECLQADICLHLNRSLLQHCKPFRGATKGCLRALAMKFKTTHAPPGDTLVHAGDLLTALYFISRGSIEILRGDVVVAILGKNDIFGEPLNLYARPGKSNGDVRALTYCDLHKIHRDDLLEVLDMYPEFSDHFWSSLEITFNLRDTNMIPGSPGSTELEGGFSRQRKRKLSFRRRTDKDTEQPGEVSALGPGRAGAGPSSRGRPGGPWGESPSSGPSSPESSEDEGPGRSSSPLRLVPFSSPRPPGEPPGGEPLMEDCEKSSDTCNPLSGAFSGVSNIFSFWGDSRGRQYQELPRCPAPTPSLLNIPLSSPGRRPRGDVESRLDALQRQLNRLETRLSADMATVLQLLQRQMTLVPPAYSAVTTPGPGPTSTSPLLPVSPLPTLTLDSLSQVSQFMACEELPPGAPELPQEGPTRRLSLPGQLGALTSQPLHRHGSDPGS

[1] = tested on: mGlu1, mGlu4, mGlu5, mGlu6 and mGlu8; assay: Functional (agonist and antagonist) assays towards mGlu receptors; type: cell-based; details: mGlu1, 4, 5, 6, 8
mGlu2 [2] = target: T4, mGlu2 (Rattus norvegicus, UniProt P31421); assay: Dynamic PET imaging in rat brain; type: in vivo, SD rats; parameters: from tissue; host or cells: brain of living SD rats
T4 sequence (P31421 19-872): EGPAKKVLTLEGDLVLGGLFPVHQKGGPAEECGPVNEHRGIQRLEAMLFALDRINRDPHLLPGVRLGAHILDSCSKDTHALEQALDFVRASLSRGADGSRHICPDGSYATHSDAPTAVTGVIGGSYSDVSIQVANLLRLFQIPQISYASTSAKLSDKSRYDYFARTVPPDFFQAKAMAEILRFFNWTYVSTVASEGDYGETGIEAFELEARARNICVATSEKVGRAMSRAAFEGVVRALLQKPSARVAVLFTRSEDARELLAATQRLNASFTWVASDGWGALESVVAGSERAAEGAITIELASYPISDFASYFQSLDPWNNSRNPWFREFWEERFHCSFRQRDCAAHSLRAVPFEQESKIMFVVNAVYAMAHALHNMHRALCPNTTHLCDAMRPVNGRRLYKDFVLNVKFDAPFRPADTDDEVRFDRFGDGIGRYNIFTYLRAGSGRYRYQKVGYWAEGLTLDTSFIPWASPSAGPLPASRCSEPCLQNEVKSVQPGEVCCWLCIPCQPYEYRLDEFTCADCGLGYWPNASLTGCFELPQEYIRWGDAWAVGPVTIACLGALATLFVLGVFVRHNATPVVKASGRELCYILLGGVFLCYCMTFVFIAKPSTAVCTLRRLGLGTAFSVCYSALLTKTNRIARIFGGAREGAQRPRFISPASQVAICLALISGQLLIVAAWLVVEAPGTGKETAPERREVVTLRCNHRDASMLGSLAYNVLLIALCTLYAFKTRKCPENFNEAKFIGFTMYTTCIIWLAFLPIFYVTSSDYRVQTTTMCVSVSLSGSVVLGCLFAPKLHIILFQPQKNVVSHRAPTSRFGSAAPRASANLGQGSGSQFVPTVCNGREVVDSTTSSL
Experimental: As we previously reported, PET scans were carried out by an Inveon PET scanner (Siemens Medical Solutions, Knoxville, TN, USA). During the scan, SD rats were anesthetized by oxygen mixed with 1-2% (v/v) isoflurane and kept body temperature at […] by a commercially available circulation system (T/Pump TP401, Gaymar Industries, Orchard Park, NY). A 24-gauge catheter was inserted into the tail vein to facilitate a bolus injection. The radiotracer [^11C]14a or [^11C]14b (ca. 1 mCi / 150-200 μL) was injected into the rat via the preinstalled catheter, and the dynamic acquisition of PET signals in rat brain was started at the same time and lasted for 60 min in 3D list mode. For pretreatment studies, 14a (1 mg/kg for [^11C]14a for self-blocking study in Figure S2; 3 mg/kg for [^11C]14b for blocking study in Figure S12C) or 14b (1 mg/kg for [^11C]14b for self-blocking study in Figure S12B), formulated in 300 μL of saline containing 10% ethanol and 5% Tween 80, was injected at 30 min via the tail vein catheter prior to the injection of [^11C]14a or [^11C]14b. The dynamic emission data were reconstructed by filtered back projection using Hanning's filter with a Nyquist cutoff of 0.5 cycle/pixel into 33 frames (10 s × twelve frames, 20 s × three frames, 30 s × three frames, 60 s × three frames, 150 s × three frames, and 300 s × nine frames). The TACs of [^11C]14a or [^11C]14b were analyzed from volumes of interest in the striatum, hippocampus, cortex, thalamus, pons and cerebellum normalized to a rat brain MRI template using PMOD software (version 3.4; PMOD technology, Zurich, Switzerland). The radioactivity was decay-corrected to the injection time and expressed as the standardized uptake value (SUV) which equals to (radioactivity per milliliter of tissue per injected radioactivity) × (gram of body weight). To obtain non-displaceable binding potential (BPND), simplified reference tissue model (SRTM), [54] was carried out on the basis of kinetic analysis using PMOD software. We acquired BP-parametric images using kinetic modeling without masking. Respective TACs in receptor-rich or -poor region were loaded for production of BP-map with default setting. Representative parametric images scaled with BPND were reconstructed by PMOD software using TACs in mGlu2-enriched and reference regions. Pons was selected as the reference region for mGlu2 (the lowest and consistent brain uptake and washout kinetics between baseline and blocking conditions). It should be noted that while there is a low-level expression of mGlu2 in the pons, it is not without existence. A reference region should be a region devoid of the target, but with similar tracer transport or diffusion to the other regions of interest with expression of the target. Therefore, there are some limitations when using pons as the reference region. For example, the partial volume effect in PET likely leads to spillover of activity from nearby higher uptake regions into the pons, artificially increasing the time-activity curve in the pons.

[3] = Radiometabolite analysis in plasma and brain; type: in vivo, Sprague-Dawley rats; details: SD rats
Experimental: Sprague-Dawley rats were sacrificed by decapitation under anesthesia at 5 and 20 min (n = 2 each time point) after the intravenous injection of [^11C]14b. Blood and whole brain samples were quickly harvested. Plasma was separated from the blood samples via 1) centrifuging at 15,000 g for 2 min at 4 °C, 2) mixing 0.5 mL of acetonitrile with 0.5 mL of supernatant, and then 3) vortexing for 15 s and centrifuging again at 15,000 g for 2 min for deproteinization. In terms of brain metabolite analysis, the removed rat brain was quickly placed on the ice, homogenized in an ice-cooled CH3CN/H2O (v/v, 1/1, 1 mL) solution, and then centrifuged at 15,000 g for 2 min at 4 °C. The supernatant was collected, whose radioactivity was >90% based on the total radioactivity in the brain homogenate. An aliquot of the supernatant (100 μL) obtained from the plasma or brain homogenate was injected into the radio-HPLC system and analyzed using a Capcell Pak UG80 C18 column (4.6 mm ID × 250 mm) in a mobile phase of CH3CN/H2O + 0.1% Et3N (v/v, 45/55) at a flow rate of 1.0 mL/min. The percentage of [^11C]14b to total radioactivity (corrected for decay) on the HPLC charts was calculated as ([peak area for [^11C]14b]/[total peak area]) × 100.

mGlu2 [4] = target: T4, mGlu2; assay: In vitro autoradiography in rat brain sections; type: binding; parameters: from tissue; host or cells: Sprague-Dawley rat brain sections
Experimental: Sagittal rat brain slices were prepared into 20 μm sections with a cryostat (HM560; Carl Zeiss, Oberkochen, Germany), mounted on air plasma spray-coated glass slides, and stored at -80 °C before used for experiments. The sections were preincubated for 15 min in a glass tank containing 200 mL of Tris·HCl buffer (50 mM, pH 7.4) consisting of 2 mM of MgCl2 and 1.2 mM of CaCl2 at room temperature. After preincubation, the sections were incubated in a fresh buffer containing [^11C]14a or [^11C]14b (250 µCi in 200 mL buffer; molar activity 2.7 Ci/µmol of [^11C]14a and 2.5 Ci/µmol of [^11C]14b, respectively) in the glass tank for 30 min at room temperature. For blocking studies, non-radioactive 14a or 14b (10 μM) and QCA (10 μM) were chosen to determine the specificity of radiotracers for binding mGlu2. Six serial brain sections were used for each conditions. After incubation, brain sections were washed with cold buffer (3 × 5 min), immersed in cold distilled water, and then dried with cold air. The sections were placed in contact with imaging plates (BAS-MS2025, FUJIFILM, Tokyo, Japan). Autoradiograms were obtained and photostimulated luminescence (PSL) values in the ROIs were measured using a Bio-Imaging Analyzer System (BAS5000, FUJIFILM).

[5] = Whole body ex vivo biodistribution in mice
Experimental: Each mouse was treated with a bolus injection of [^11C]14b (50 μCi / 150 μL) via the tail vein. Three mice were sacrificed by cervical dislocation at each time point (1, 5, 15, 30 and 60 min) after injection. Major organs, including heart, lungs, liver, pancreas, spleen, kidneys, stomach (including contents), small intestine (including contents), large intestine (including contents), testes, muscle, whole brain and blood samples were quickly removed and weighed. The radioactivity remained in these organs was measured by a 2480 Wizard autogamma counter (PerkinElmer, USA). The results are expressed as the percentage of injected dose per gram of wet tissue (%ID/g) or standardized uptake value (SUV). All radioactivity measurements were decay-corrected to the time point of PET tracer injection based on half-life of ^11C.

mGlu2 [6] = details: cited from earlier work
[7] = cited from earlier work
[8] = parameters: method as in PMID 30611634; details: cited from earlier work
[9] = SRTM, pons as reference, baseline

IC50 (human mGlu2): 24 nM | IC50 (human mGlu3): > 10 µM | Off-target binding (major CNS targets; 10 μM compound, n = 4): No significant off-target binding (>50%) | Response with other major brain targets (major CNS targets; comprehensive CNS panel, NIMH PDSP): no significant response | Interaction with related mGlu receptor family [1]: no substantial interaction
Structure (SMILES): COc1cc(CN2CCc3c(-c4ccc(F)cc4F)cc(C(N)=O)nc3C2)ccn1 [14b, 4-(2,4-difluorophenyl)-7-((2-methoxypyridin-4-yl)methyl)-5,6,7,8-tetrahydro-1,7-naphthyridine-2-carboxamide]
Activity in hERG safety assay (hERG): no activity

Time of peak radioactivity in brain regions (mGlu2 [2]; SD rats, i.v.): ≤ 3 min | BPND in cerebellum (mGlu2 [2]; [9]): 0.12 | BPND in striatum and cingulate cortex (mGlu2 [2]; [9]): 0.72 | Reduction of BPND (mGlu2 [2]; pretreatment with 14a, 3 mg/kg i.v. 30 min before): 48-90% | Reduction of BPND (mGlu2 [2]; pretreatment with 14b, 1 mg/kg i.v. 30 min before): 41-88% | Unchanged fraction in plasma ([3]; 5 min post injection): 77% | Unchanged fraction in brain ([3]; 20 min post injection): > 99% | Unchanged fraction in plasma ([3]; 20 min post injection): 21% | Ratio of cerebellum to pons (mGlu2 [4]; autoradiography, baseline): 1.78 | Ratio of cerebral cortex to pons (mGlu2 [4]; autoradiography, baseline): 2.61 | Ratio of hippocampus to pons (mGlu2 [4]; autoradiography, baseline): 2.00 | Ratio of striatum to pons (mGlu2 [4]; autoradiography, baseline): 2.79 | Decrease of region-to-pons ratios under blocking (mGlu2 [4]; preincubated with unlabeled QCA, 14b or 14a at 10 µM): 45-69% | Ratio of %ID/g(1min/60min) in blood [5]: > 3.5 | Brain uptake ([5]; 5 min post injection): ca. 3.6 %ID/g | Radioactivity in heart, lungs, liver, pancreas, kidneys and small intestine ([5]; within initial 1 min): > 4 %ID/g
Structure (SMILES): [11CH3]Oc1cc(CN2CCc3c(-c4ccc(F)cc4F)cc(C(N)=O)nc3C2)ccn1 [[^11C]14b, 4-(2,4-difluorophenyl)-7-((2-(methoxy-^11C)pyridine-4-yl)methyl)-5,6,7,8-tetrahydro-1,7-naphthyridine-2-carboxamide]

Structure (SMILES): Cc1cc(COc2cnc(C(N)=O)cc2-c2ccc(O[11CH3])cc2F)ccn1 [[^11C]MMP, 4-(2-fluoro-4-[^11C]methoxyphenyl)-5-((2-methylpyridin-4-yl)methoxy)picolinamide]
IC50 (mGlu2 [6]): 26 nM | Brain uptake, peak value ([7]; animal PET): ~ 0.6 | LogD [8]: 3.30

Structure (SMILES): [11CH3]Oc1ccc(-c2cc(C(N)=O)nc3cc(CN4C(=O)CCC4=O)ccc23)c(F)c1 [[^11C]QCA, 7-((2,5-Dioxopyrrolidin-1-yl)methyl)-4-(2-fluoro-4-[^11C]methoxyphenyl) quinoline-2-carboxamide]
IC50 (mGlu2 [6]): 45 nM | Brain uptake, peak value [7]: ~ 0.3 SUV
